Laboratory results taken from ChEMBL document CHEMBL1201862, “PubChem BioAssay data set” (2004).
The source made the active and inactive calls.

Tests used:
[1] = toxicity toward HepG2 liver cells – cell-based, plate reader, cherry-pick, antagonist series, cytotoxicity control, dose response (AID 743416); type: functional
[2] = blockers of bursicon-stimulated LGR2 cAMP reporter – cell-based, HEK293, CRE-luciferase reporter, cherry pick, set 2, dose response (AID 743343); type: functional;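 note: transfected cells were stimulated with diluted bursicon conditioned medium after compound addition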
[3] = blockade of melanocortin 4 receptor signaling – cell-based, plate reader, cherry pick, counter-screen for LGR2 antagonist project, dose response (AID 743444); type: functional;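 note: transfected HEK 293 cells stimulated with alpha-MSH peptide; potency of inhibitors of the alpha-MSH evoked signal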
[4] = viability loss in HeLa cells – cytotoxicity control for MgcRacGAP inhibitor project, dose response (AID 624300); type: functional
[5] = target: T1, Rac GTPase-activating protein 1 (Homo sapiens, UniProt Q9H0H5); assay: blockers of MgcRacGAP-driven Rac1 GTP hydrolysis – biochemical, ADP Hunter fluorescence, primary and confirmatory, confirmation (AID 624330); type: functional
T1 sequence (Q9H0H5 whole entry): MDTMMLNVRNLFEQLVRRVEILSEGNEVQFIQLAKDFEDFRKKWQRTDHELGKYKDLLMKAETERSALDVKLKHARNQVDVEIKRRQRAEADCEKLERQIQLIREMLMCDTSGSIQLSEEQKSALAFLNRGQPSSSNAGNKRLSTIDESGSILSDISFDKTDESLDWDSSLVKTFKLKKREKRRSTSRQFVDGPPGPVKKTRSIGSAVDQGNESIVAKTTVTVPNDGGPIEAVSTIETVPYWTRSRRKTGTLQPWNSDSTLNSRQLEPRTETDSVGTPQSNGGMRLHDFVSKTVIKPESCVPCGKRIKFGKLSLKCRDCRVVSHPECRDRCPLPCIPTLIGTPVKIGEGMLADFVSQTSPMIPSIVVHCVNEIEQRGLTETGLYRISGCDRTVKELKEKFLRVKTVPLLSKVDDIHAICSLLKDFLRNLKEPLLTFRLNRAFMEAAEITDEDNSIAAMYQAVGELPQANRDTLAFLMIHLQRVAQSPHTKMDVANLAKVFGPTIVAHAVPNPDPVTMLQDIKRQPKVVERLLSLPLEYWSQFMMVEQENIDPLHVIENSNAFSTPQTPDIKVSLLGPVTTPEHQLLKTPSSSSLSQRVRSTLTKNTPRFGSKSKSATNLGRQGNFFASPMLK

[6] = Luminescence Cell-Based Dose Confirmation HTS to Identify Activators of 5'UTR Stem-Loop Driven Alpha-Synuclein mRNA Translation in H4 Neuroglioblastoma Cells. [Related pubchem assays: 1829 (Project Summary), 1814 (Primary HTS)]; type: functional
[7] = Luminescence Cell-Based Dose Response HTS to Identify Activators of Luciferase Translation or Activity in H4 […] Cells. [Related pubchem assays: 1829 (Project Summary), 1814 (Primary HTS)]; type: functional
H4 = assay: Luminescence Cell-Based Dose Response HTS to Identify Activators of 5'UTR Stem-Loop Driven Prion Protein mRNA Translation in H4 Neuroglioblastoma Cells. [Related pubchem assays: 1829 (Project Summary), 1814 (Primary HTS)]; type: functional; settings: Homo sapiens
[8] = target: T2, Adenosylmethionine-8-amino-7-oxononanoate aminotransferase (Mycobacterium tuberculosis, UniProt P9WQ81); assay: Mycobacterium tuberculosis BioA enzyme inhibitor Measured in Biochemical System Using Plate Reader - 2163-02_Inhibitor_Dose_CherryPick_Activity.; type: functional, Mycobacterium tuberculosis UT205
T2 sequence (P9WQ81 whole entry): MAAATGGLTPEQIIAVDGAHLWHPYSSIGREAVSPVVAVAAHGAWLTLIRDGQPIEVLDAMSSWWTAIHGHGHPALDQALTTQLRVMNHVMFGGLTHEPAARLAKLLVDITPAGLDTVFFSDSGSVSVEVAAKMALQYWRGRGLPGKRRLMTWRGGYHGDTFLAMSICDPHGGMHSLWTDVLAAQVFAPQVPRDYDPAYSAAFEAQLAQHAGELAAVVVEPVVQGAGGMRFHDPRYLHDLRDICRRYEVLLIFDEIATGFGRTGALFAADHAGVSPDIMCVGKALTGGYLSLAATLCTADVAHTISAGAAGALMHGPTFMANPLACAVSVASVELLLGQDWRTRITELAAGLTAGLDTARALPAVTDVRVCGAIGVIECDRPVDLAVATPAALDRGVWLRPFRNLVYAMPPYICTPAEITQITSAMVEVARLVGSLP

Cytochrome P450 2C9 = Cytochrome P450 2C9 (Homo sapiens, UniProt P11712)
Cytochrome P450 2C9, sequence (P11712 whole entry): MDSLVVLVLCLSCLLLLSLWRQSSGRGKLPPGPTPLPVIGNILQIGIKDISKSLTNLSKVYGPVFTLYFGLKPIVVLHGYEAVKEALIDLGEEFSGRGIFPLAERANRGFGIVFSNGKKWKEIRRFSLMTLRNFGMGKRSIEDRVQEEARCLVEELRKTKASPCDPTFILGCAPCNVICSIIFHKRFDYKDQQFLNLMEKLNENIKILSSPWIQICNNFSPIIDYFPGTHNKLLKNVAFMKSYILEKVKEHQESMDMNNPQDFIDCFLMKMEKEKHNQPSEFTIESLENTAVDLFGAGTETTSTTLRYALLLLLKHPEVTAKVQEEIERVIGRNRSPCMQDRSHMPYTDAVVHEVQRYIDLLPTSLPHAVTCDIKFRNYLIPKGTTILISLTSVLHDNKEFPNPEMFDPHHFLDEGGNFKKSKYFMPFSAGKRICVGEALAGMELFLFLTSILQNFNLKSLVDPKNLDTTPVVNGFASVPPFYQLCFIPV

[9] = NIH-3T3 fibroblast cytotoxicity, dose response, cytotoxicity control, cell-based, fluorescence, Alamar Blue, secondary assay (AID 2327); type: functional;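 note: NIH-3T3 mouse fibroblasts cultured with fluconazole at 8 µg/mL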
[10] = target: T3, Heat shock factor protein 1 (Mus musculus, UniProt P38532); assay: decrease of HSF1-responsive luciferase luminescence – cell-based, NIH3T3, dose retest, confirmation (AID 2382); type: functional;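 note: NIH3T3 fibroblasts with HSF1-driven luciferase reporter stressed by proteasome inhibitor MG132; luminescence from HSF1-driven luciferase expression after 8 hours of MG132 stress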
T3 sequence (P38532 whole entry): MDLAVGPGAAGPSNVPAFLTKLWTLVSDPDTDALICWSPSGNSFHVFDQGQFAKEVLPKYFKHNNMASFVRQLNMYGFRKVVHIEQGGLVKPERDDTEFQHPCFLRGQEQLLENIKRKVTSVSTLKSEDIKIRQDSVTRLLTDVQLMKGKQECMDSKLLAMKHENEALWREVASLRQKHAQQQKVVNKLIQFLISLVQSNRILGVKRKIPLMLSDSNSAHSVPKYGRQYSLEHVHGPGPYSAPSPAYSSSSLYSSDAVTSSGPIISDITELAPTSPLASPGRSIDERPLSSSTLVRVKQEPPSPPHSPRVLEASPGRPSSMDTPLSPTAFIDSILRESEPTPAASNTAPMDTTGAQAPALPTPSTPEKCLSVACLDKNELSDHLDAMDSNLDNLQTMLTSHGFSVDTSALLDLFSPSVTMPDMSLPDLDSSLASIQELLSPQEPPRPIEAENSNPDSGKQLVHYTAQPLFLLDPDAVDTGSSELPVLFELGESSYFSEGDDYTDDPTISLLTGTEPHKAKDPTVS

[11] = fluconazole-exposed Candida albicans growth modulators – fluorescence, retest, confirmation (AID 2467); type: functional, cell-based
[12] = Trypanosoma cruzi growth suppression in host cells – NIH3T3 host cells, beta-gal luminescence, confirmation (AID 2044); type: functional, cell-based;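 note: intracellular parasites grown in NIH/3T3 mouse fibroblasts as host cells; luminescent beta-galactosidase reporter signal from transgenic T. cruzi replicating inside host cells; inhibitors lower the luminescence signal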
[13] = NIH3T3 cell viability loss – ATP luminescence, mouse fibroblasts, counter-screen, dose response (AID 2010); type: functional, cell-based;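 note: cells exposed to compound for about 90 hours before reading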
[14] = target: T4, Replicative DNA helicase DnaB (Mycobacterium tuberculosis, UniProt P9WMR3); assay: DnaB intein splicing inhibitors, dose response, biochemical, cell-free fluorescence (AID 449749); type: functional
T4 sequence (P9WMR3 whole entry): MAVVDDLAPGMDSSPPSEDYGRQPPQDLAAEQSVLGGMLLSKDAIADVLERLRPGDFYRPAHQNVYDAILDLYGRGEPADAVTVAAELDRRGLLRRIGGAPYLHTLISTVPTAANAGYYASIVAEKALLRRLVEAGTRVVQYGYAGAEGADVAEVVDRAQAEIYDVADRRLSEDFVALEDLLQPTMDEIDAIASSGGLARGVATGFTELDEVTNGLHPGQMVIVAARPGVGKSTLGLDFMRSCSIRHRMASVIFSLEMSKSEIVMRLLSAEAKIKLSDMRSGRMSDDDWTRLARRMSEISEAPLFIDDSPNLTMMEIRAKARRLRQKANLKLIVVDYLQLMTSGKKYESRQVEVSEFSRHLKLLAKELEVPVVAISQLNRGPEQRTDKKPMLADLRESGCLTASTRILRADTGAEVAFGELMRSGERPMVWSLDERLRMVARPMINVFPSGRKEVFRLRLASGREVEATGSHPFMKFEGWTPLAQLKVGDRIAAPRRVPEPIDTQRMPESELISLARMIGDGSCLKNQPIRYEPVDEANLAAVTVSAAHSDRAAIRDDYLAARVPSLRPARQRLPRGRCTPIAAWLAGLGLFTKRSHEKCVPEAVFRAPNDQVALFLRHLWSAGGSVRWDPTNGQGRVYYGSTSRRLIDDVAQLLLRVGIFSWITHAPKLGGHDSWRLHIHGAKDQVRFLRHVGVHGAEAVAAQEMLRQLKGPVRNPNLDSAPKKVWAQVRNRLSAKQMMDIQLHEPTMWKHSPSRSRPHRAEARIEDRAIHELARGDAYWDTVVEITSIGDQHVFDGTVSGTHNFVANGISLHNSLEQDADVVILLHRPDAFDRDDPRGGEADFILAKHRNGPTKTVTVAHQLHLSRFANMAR

Protein RecA = target: T5, Protein RecA (Mycobacterium tuberculosis, UniProt P9WHJ3); assay: Fluorescence Cell-Free Homogeneous Dose Retest to Identify Inhibitors of RecA-Intein Splicing Activity. [Related pubchem assays (depositor defined):AID2097, AID2223, AID489010, AID492950]; type: functional
T5 sequence (P9WHJ3 whole entry): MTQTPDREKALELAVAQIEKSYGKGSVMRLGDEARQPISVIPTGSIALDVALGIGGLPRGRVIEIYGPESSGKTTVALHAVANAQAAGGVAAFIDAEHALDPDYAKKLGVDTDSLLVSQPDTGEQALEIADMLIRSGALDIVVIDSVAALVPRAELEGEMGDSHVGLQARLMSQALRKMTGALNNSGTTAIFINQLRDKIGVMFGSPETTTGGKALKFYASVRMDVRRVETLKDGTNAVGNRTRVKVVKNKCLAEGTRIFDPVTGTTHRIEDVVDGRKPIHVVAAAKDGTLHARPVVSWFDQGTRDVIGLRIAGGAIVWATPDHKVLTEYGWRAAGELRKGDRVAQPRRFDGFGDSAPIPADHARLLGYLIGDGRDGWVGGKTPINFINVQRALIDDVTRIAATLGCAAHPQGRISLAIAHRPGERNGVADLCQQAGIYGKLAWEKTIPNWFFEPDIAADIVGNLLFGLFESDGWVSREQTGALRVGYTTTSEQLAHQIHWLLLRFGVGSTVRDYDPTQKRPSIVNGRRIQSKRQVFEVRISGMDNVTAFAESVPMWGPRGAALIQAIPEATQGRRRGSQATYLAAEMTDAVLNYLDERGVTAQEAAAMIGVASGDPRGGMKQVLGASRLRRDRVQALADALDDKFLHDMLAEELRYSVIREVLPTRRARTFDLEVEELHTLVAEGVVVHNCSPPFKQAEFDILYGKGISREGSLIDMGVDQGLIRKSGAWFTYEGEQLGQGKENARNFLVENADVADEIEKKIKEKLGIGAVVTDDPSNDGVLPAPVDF

[15] = Fluorescence-based cell-based high throughput dose response assay for inhibitors of the interaction of nucleotide-binding oligomerization domain containing 2 (NOD2) and the receptor-interacting serine-threonine kinase 2 (RIPK2).; type: functional; settings: Homo sapiens
P388/ADR = assay: cells; type: functional; settings: Mus musculus
SN12K1 = assay: cells; type: functional; settings: Homo sapiens
P388 = assay: cells; type: functional; settings: Mus musculus

Cc1ccc(-c2csc(Nc3ccccn3)n2)cc1
AC50 [1]: > 52 µM (inactive) | AC50 [2]: 2.74 µM (active) | AC50 [3]: 3.3 µM (active)

CCCc1cc(S)n2c(nc3ccccc32)c1C#N
CC50 [4]: 100 µM (active) | IC50 [5]: 52.2 µM (active)

C#CCSc1nnc(-c2sc(-c3ccccc3)nc2C)n1C
EC50 [6]: > 120 µM (not active) | EC50 [7]: 48.9 µM (active) | EC50 (H4): 16.9 µM (active) | AC50 [8]: 2.88 µM (active) | AC50 (Cytochrome P450 2C9): 17.8 µM (inconclusive)

Cc1nc2nc(SCC(=O)NCc3ccco3)nn2c(C)c1Cc1ccccc1
AC50 [8]: 0.704 µM (active)

Cc1ccc(-n2ncc(Br)c(Br)c2=O)cc1
EC50 [9]: 2.27 µM (inconclusive) | EC50 [10]: 5.57 µM (active) | EC50 [11]: 0.443 µM (active) | EC50 [12]: 2.23 µM (active) | EC50 [13]: 1.97 µM (active) | AC50 [14]: 20.9 µM (active) | EC50 (Protein RecA): 4.75 µM (active) | IC50 [15]: 3.25 µM (active)

CC(=O)N1CCN(c2ccc(Nc3ncnc4c3oc3ccccc34)cc2)CC1
CC50 [4]: 58.3 µM (active) | IC50 [5]: 46 µM (active)

CSc1ccc(S(=O)(=O)N2CCC(C(=O)Nc3cccnc3)CC2)cc1
AC50 [8]: 0.807 µM (active)

Nc1ccn(C2OC(CO)C(O)C2O)c(=O)n1 (stereo not given)
GI50 (P388/ADR): 0.05 µM (active) | GI50 (SN12K1): 0.07 µM (active) | GI50 (P388): 0.05 µM (active)
